Results published in paper PMC11357992, “Non-invasive mapping of systemic neutrophil dynamics upon cardiovascular injury” (Nature Cardiovascular Research, 2023).
Several values for one entry are separate records, joined by “and”; a condition that tells them apart may be missing. Identical values can stand only once. Where no end group is shown, it is not given here. Side-chain parts run from the residue outwards. rhodamine‑labelled PEGylated perfluoro‑15‑crown‑5 ether nanoemulsion = not defined here; carboxyfluorescein = N-terminal fluorescence label (CF)

Columns and labels:
human neutrophils = experiment: ROS release of human neutrophils; format: cell-based; details: for ROS release of human neutrophils, raw data (panel C): single samples #1-#3
Procedure: A total of 5 × 10^6 human neutrophils were incubated in 10 ml DMEM with or without 1 µg ml^−1 peptide or 50 µl ml^−1 emulsion. At distinct time points, cells were pelleted, and 1 ml of the supernatant was immediately frozen at −80 °C. Subsequently, the amount of ROS was determined by chemiluminescence analysis. […] After centrifugation, 80 µl supernatant was used to determine ROS by UPLC measurement (Waters Acquity Bio H-Class with 2475 FLD Detector). To this end, gradients A and B (0.1% trifluoroacetic acid in 1 l water and acetonitrile, respectively) at a flow rate of 0.26 ml min^−1 at 17 °C were used. Dihydroethidium was excited and detected at 480 nm and 580 nm, respectively.

murine blood leukocytes = experiment: Ex vivo uptake of mNPPFCs/ConPFCs by murine immune cells, flow cytometry; format: cell-based, mouse; set-up: Basal mNPPFC Uptake, flow cytometry / Stimulated mNPPFC Uptake, flow cytometry: unit not given here; details: for Stimulated mNPPFC Uptake, flow cytometry: LPS-stimulated conditions; for Stimulated mNPPFC Uptake, flow cytometry / Basal mNPPFC Uptake, flow cytometry: individual experiments; for Basal mNPPFC Uptake, flow cytometry: basal conditions
Procedure: Erythrocytes were lysed by adding a fourfold volume of NH4Cl buffer (pH 7.4). After 10 min of incubation, samples were centrifuged at 350g for 10 min at 20 °C. For isolation of neutrophils from the bone marrow, mice were killed by cervical dislocation, and bones were dissected. Afterward, cells were isolated from the bone marrow using established protocols.
Flow cytometry was performed with a FACSCanto II (BD Biosciences) or LSRFortessa (BD Biosciences). Cells were gated with appropriate FSC–SSC settings and thresholds for excluding debris. To omit dead cells, samples were stained with 1 µg ml^−1 DAPI (Merck). For analysis, cells were gated with FACSDiva 6 or FlowJo 7.1, and MFI and/or the number of positive cells was determined, depending on the experiment.
Human immune cells were discriminated by staining for CD45 (BioLegend, clone HI30), CD11b (BD Biosciences, clone ICRF44), CD14 (BioLegend, clone M5E2) and CD16 (BD Biosciences, clone 3G8) (lymphocytes, CD45^+CD11b^−CD16^−; classical monocytes, CD45^+CD11b^+CD14^++CD16^−; non-classical monocytes, CD45^+CD11b^+CD14^+CD16^++; neutrophils, CD45^+CD11b^+CD16^+). Murine immune cells were discriminated by staining for CD45 (BD Biosciences, clone 30-F11), CD11b (BioLegend, clone M1/70), Ly6G (BD Biosciences, clone 1A8), Ly6C (BioLegend, clone HK1.4) and F4/80 (BioLegend, clone BM8) (lymphocytes, CD45^+CD11b^−Ly6G^−; classical monocytes, CD45^+CD11b^+Ly6G^−Ly6C^hi; non-classical monocytes, CD45^+CD11b^+Ly6G^−Ly6C^lo; neutrophils, CD45^+CD11b^+Ly6G^+; eosinophils, CD45^+CD11b^+Ly6G^+SSC^hiFSC^lo). Both human and murine cells were stained for 20 min at 4 °C, followed by washing with 200 µl MACS buffer.
If not mentioned otherwise, neutrophil-specific peptide or Con (both at 1 µg ml^−1) were incubated for 20 min at 4 °C, while ^NPPFCs or ^ConPFCs were incubated at a concentration of 10 µl ml^−1 for the indicated period of time, followed by two washing steps with 200 µl MACS buffer.
A total of 1 × 10^6 cells were incubated with 10 µl of the emulsion over a period of 80 min at 37 °C. At distinct time points, 50 µl of the samples were transferred into 2 ml of ice-cold MACS buffer and analyzed for rhodamine fluorescence by flow cytometry.
Extended Data Fig. 2 Specific targeting of neutrophils by ^mNPPFCs. a, Flow cytometric analysis of murine blood leukocytes incubated with ^mNPPFCs over 80 min illustrating their predominant uptake by neutrophils (red) as compared to monocytes (blue) and lymphocytes (gray). b, To further validate specificity, binding of CD177 mAb as well as incorporation of ^mNPPFCs under basal and LPS-stimulated conditions were determined. Almost no binding/uptake into classical or non-classical monocytes as well as macrophages or eosinophils could be detected. […] Subsequently, cells were analyzed by ^1H/^19F MRI. Left: ^1H/^19F MRI of centrifugation tubes with neutrophils treated with ^mNPPFCs (lower panel) or ^ConPFCs (upper panel). The small neutrophil cell pellet is located at the bottom of the tube and can be identified by ^1H MRI (1st column) as slightly darker structure (arrows) compared to the bright phosphate buffer; corresponding ^19F MR images (2nd column) and superimposition of ^1H/^19F datasets (3rd column, with ^19F data color-coded in hot iron). Quantification of ^19F signals (4th column) clearly indicate substantial stronger ^19F uptake in ^mNPPFC-treated neutrophils (red) compared to cells incubated with ^ConPFCs (gray); a.u. = arbitrary units. Data are means ± SD of n = 4 (a), n = 6 (b), n = 6 (c) or n = 3-5 (d) independent experiments; * = […], ** = p < 0.01, *** = p < 0.001, verified by two-way ANOVA (a), one-way ANOVA (b) or two-sided students t-test (c, d). Source data

[1] = ex vivo, murine blood, flow cytometry, panel A raw data, replicates #1-#3

Substance | impact on human neutrophil ROS release (human neutrophils; 1 µg ml^−1 peptide or 50 µl ml^−1 emulsion) | ROS release of human neutrophils, raw data (panel C) (human neutrophils; time point 1) | ROS release of human neutrophils, raw data (panel C) (human neutrophils; time point 3) | ROS release of human neutrophils, raw data (panel C) (human neutrophils; time point 6) | ROS release of human neutrophils, raw data (panel C) (human neutrophils; time point 24) | Stimulated mNPPFC Uptake, flow cytometry (murine blood leukocytes; classical monocytes) | Basal mNPPFC Uptake, flow cytometry (murine blood leukocytes; classical monocytes) | Stimulated mNPPFC Uptake, flow cytometry (murine blood leukocytes; eosinophils) | Basal mNPPFC Uptake, flow cytometry (murine blood leukocytes; eosinophils) | uptake of PFCs, lymphocytes (murine blood leukocytes; [1]) | uptake of PFCs, monocytes (murine blood leukocytes; [1]) | uptake of PFCs, neutrophils (murine blood leukocytes; [1]) | Stimulated mNPPFC Uptake, flow cytometry (murine blood leukocytes; macrophages) | Basal mNPPFC Uptake, flow cytometry (murine blood leukocytes; macrophages) | Stimulated mNPPFC Uptake, flow cytometry (murine blood leukocytes; neutrophils) | Basal mNPPFC Uptake, flow cytometry (murine blood leukocytes; neutrophils) | Stimulated mNPPFC Uptake, flow cytometry (murine blood leukocytes; non classical monocytes) | Basal mNPPFC Uptake, flow cytometry (murine blood leukocytes; non classical monocytes)
hNPPFCs: PEGylated rhodamine-labeled perfluorocarbon nanoemulsion coupled with human neutrophil-specific peptide hNP (carboxyfluorescein-DLVTSKLQVGGGC; also: C-terminal Cys coupled via maleimide-PEG2000-DSPE to rhodamine-labelled perfluorocarbon nanoemulsion) | neither ^hNPPFCs nor the free peptide had any impact on human neutrophil ROS release | 1725.82 and 1480.41 and 1396.67 | 1373.8 and 1515.29 and 1254.87 | 2382.05 and 1474.31 and 1302.37 | 1643.61 and 1455.28 | – | – | – | – | – | – | – | – | – | – | – | – | –
mNPPFCs: PEGylated rhodamine-labeled perfluoro-15-crown-5 ether nanoemulsion (maleimide PFCs) coupled with murine neutrophil-specific peptide mNP (carboxyfluorescein-DFYKPMPNLRITGGGC([maleimide‑PEG2000‑DSPE-rhodamine‑labelled PEGylated perfluoro‑15‑crown‑5 ether nanoemulsion]); reading uncertain; also: printed as DFYKPMPNLRIT-GGG-C) | – | – | – | – | – | 968 and 1199 and 1888 and 792 and 1168 and 1582 | 1007 and 804 and 1494 and 1027 and 800 and 1292 | 391 and 367 and 596 and 415 and 376 and 503 | 880 and 341 and 789 and 755 and 384 and 656 | 97.9 and 103 and 102 | 212 and 348 and 265 | 2972 and 1641 and 1658 | 1176 and 1188 and 969 and 1223 and 1090 and 1085 | 945 and 874 and 865 and 808 and 877 and 873 | 17100 and 16383 and 15263 and 14366 and 16180 and 12939 | 10186 and 7521 and 8652 and 6287 and 6135 and 7209 | 277 and 303 and 242 and 252 and 281 and 240 | 138 and 192 and 152 and 172 and 167
